Results published in US9234200B2, “Oligonucleotide, glucocorticoid sensitivity enhancer, pharmaceutical composition, and expression vector” (National University Corporation Tokyo University of …, priority 2011, dated 2016).

Tests used:
GRα and GRβ = GRα and GRβ expression levels in Raji cells transfected with oligonucleotide (RT-PCR and PCR); format: cell-based, human; conditions: for GAPDH / GRα / GRβ: expression level (band intensity), oligonucleotide 300 nM by electroporation, 24 h; for GAPDH: endogenous control; for GRα/GAPDH / GRβ/GAPDH / Relative value of GRα/GRβ: oligonucleotide 300 nM; for Relative value of GRα/GRβ: cells not transfected = 1;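 on GAPDH: mean of three independent experiments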
Protocol: Raji cells (manufactured by Japan Health Science Foundation) derived from human Burkitt's lymphoma were used in experiments.
Raji cells were cultured and maintained in RPMI1640 medium (manufactured by Gibco) at 37° C. in an atmosphere of 5% CO2, the RPMI1640 medium being supplemented with 10% fetal bovine serum (FBS) (manufactured by Filtoron), 100 U/ml penicillin, and 100 μg/ml streptomycin.
2×10^6 Raji cells were washed with phosphate-buffered saline (PBS) and suspended in 100 μl transfection reagent of an Amaxa cell line Nucleofector Kit V (manufactured by Lonza).
After the Raji cells were cultured in the above-described medium for 24 hours, the Raji cells were used for subsequent experiments.
The expression level of glyceraldehyde-3-phosphate dehydrogenase (GAPDH) was determined as an endogenous control.
After the Raji cells were washed with PBS, RNA was extracted using a FastPure RNA Kit (manufactured by Takara Bio Inc.), and reverse transcription was performed using a PrimeScript 1st strand cDNA synthesis kit (manufactured by Takara Bio Inc.). The obtained cDNA was amplified using Platinum Taq DNA polymerase (manufactured by Invitrogen) and PCR primers (having the base sequences shown in Table 2) specific for the gene of interest. The PCR conditions included: performing initial denaturation at 94° C. for 2 minutes; performing 35 cycles of denaturation (94° C. for 30 seconds), annealing (55° C. for 30 seconds), and extension (72° C. for 1 minute); and then performing final extension at 72° C. for 4 minutes.
After the PCR was performed, DNA was separated by […] electrophoresis on a 2% agarose gel containing ethidium bromide, and the intensity of bands was quantified using an image analyzer GEL PRINT 2000i/VGA (manufactured by Genomic Solutions).

Raji cells = test: BrdU incorporation assay, glucocorticoid sensitivity of oligonucleotide-transfected Raji cells; format: cell-based, human; conditions: quadruplicate (Table 7), label dexamethasone = no oligonucleotide transfected
Protocol: In order to examine the change of glucocorticoid sensitivity of cells caused by introduction of oligonucleotide 1, cell proliferation was quantified by a 5-bromo-2′-deoxyuridine (BrdU) incorporation assay. Dexamethasone (manufactured by Biomol) was used as a glucocorticoid. The concentration of dexamethasone was set to varied concentrations of 0 μM (no addition), 0.1 μM, 0.5 μM, 1 μM, 5 μM, and 10 μM.
Raji cells were cultured in serum-free RPMI1640 medium for 12 hours to synchronize the cell cycle, and then re-suspended in RPMI1640 medium supplemented with serum and inoculated onto a 96-well plate.
After dexamethasone was added, the cells were cultured for 22 hours. Then, BrdU was added thereto, and the cells were cultured for another 2 hours. After centrifugation, the supernatant was discarded, and the cells were dried and fixed. The fixed cells were allowed to react with a peroxidase-labeled anti-BrdU antibody for 1 hour at room temperature. Subsequently, the cells were washed three times with PBS, and tetramethylbenzidine was added thereto. When noticeable coloring was observed, the reaction was stopped by adding H2SO4 (1M). After vigorous agitation, absorbance at 450 nm was measured using a plate reader.
Using the Raji cells to which dexamethasone was not added as a control, cell proliferation inhibitory rate (%) was calculated based on the relative ratio of the obtained absorbance. Here, statistical significance was assessed with one-way analysis of variance and multiple comparison. Tukey's multiple comparison was used for the multiple comparison. A significance level of P<0.05 (vs. no addition of oligonucleotide) was regarded as a significant difference.
BrdU incorporation assay was performed in the same manner as in the above, and alternation of the glucocorticoid sensitivity of the cells caused by the introduction of any one of oligonucleotides 2 to 5 was examined. Each experiment was carried out in quadruplicate. The values shown in Table 7 are average values thereof.

Row | Substance | GAPDH (GRα and GRβ) | GRα (GRα and GRβ) | GRβ (GRα and GRβ) | GRα/GAPDH (GRα and GRβ) | GRβ/GAPDH (GRα and GRβ) | Relative value of GRα/GRβ (GRα and GRβ) | cell proliferation inhibitory rate (Raji cells; dexamethasone 0.1 μM) | cell proliferation inhibitory rate (Raji cells; dexamethasone 0.5 μM) | cell proliferation inhibitory rate (Raji cells; dexamethasone 1 μM) | cell proliferation inhibitory rate (Raji cells; dexamethasone 5 μM)
1 | Oligonucleotide 2: an oligonucleotide having a base sequence represented by SEQ ID NO: 2 (5′-AAAAGGGCACAGCTTCTTTTCCCATTTAATGAAA-3′) (listed as DNA, chemistry not given here) | 3169.938 | 3340.440 | 4641.922 | 1.054 | 1.467 | 1.226 | 10.541% | 19.044% | 22.769% | 36.402%
2 | Oligonucleotide 3: an oligonucleotide having a base sequence represented by SEQ ID NO: 3 (5′-TAAGATGACTTTCTTTTCCCCCACGTATCCT-3′) (listed as DNA, chemistry not given here) | 3128.467 | 3177.814 | 4596.457 | 1.015 | 1.471 | 1.182 | 16.924% | 34.134% | 37.164% | 48.256%
3 | Oligonucleotide 5: an oligonucleotide having a base sequence represented by SEQ ID NO: 5 (5′-CAGATTTTTTTATTATGATGT-3′) (listed as DNA, chemistry not given here) | 3087.403 | 3210.228 | 4516.989 | 1.041 | 1.461 | 1.210 | 29.842% | 26.632% | 32.895% | 36.053%
